Assay results reported in US20060194860A1, “Pharmaceutical compositions containing aryl or heteroaryl azolylcarbinol compounds” (GRUENENTHAL GMBH, priority 2003, published 2006).

Target: T1, 5-HT reuptake (Homo sapiens, UniProt P31645)
T1 construct: in a system with neurological tissue under physiological conditions; from tissue
Experiment: Functional measurement of the 5-HT uptake / inhibition of serotonin uptake (tritium-marked 5-HT, neurological tissue)
Type: biochemical
Settings: uptake of tritium-marked 5-HT in neurological tissue under physiological conditions; three independent tests
Excerpt: Functional Measurement of the 5-HT-Uptake or the Inhibition of Serotonin Uptake
The uptake of tritium-marked 5-HT (serotonin) as a function of the concentration of the added substance 5-{α-[2-(methylamino)ethoxy]benzyl}-1-methyl-1H-pyrazole in a system with neurological tissue under physiological conditions.

T1 sequence (P31645 whole entry): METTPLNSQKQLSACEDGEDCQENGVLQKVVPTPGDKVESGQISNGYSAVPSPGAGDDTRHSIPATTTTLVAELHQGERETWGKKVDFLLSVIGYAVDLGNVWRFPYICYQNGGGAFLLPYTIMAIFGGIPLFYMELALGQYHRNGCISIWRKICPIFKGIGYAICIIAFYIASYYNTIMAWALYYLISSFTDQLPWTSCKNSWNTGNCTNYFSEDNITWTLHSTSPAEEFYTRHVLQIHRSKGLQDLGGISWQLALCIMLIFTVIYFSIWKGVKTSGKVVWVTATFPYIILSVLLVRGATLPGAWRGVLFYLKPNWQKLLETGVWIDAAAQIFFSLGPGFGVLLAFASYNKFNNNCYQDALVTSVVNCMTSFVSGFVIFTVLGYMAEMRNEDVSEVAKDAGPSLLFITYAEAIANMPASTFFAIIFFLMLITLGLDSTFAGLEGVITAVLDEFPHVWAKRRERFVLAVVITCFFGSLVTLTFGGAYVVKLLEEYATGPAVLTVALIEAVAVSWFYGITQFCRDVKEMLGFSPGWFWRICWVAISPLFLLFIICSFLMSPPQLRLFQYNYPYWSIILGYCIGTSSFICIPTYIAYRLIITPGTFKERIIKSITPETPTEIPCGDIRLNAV

Compound: CNCCOC(c1ccccc1)c1ccnn1C (stereo not drawn) [5-{α-[2-(methylamino)ethoxy]benzyl}-1-methyl-1H-pyrazole]
- Ki: 530 ± 100 nM
